Results from PMC10525516, “Novel NADPH Oxidase-2 Inhibitors as Potential Anti-Inflammatory and Neuroprotective Agents” (Antioxidants, 2023).
pIC50: −log10 of the molar value.

Columns and labels:
Nox2 [1] = target: T1, Nox2 (Homo sapiens, UniProt P04839); experiment: Seahorse XFe96 oxygen consumption in dHL60 cells before and after PMA; type: cell-based
T1 construct: endogenous in cells
T1 sequence (P04839 2-570 limits assumed): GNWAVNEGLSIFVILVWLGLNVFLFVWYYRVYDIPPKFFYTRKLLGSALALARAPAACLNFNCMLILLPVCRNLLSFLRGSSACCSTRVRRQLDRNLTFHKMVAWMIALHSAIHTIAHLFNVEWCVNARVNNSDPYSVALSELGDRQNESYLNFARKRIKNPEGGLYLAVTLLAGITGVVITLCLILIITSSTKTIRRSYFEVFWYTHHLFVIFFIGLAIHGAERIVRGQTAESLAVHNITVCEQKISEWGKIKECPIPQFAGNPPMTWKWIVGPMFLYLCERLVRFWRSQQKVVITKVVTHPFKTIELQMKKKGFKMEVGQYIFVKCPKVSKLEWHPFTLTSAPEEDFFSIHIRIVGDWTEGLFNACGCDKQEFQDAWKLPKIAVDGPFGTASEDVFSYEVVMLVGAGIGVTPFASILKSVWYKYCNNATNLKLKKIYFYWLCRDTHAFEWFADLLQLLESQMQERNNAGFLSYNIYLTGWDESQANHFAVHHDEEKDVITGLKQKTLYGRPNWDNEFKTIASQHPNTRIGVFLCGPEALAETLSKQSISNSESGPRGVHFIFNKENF
T1 sequence (P13498 2-195 partner limits assumed): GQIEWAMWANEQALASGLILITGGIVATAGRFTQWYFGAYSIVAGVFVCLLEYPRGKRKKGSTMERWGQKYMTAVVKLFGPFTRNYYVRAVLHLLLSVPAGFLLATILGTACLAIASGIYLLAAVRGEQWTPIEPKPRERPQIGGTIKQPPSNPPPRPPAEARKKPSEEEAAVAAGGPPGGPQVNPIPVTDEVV
Method: Oxygen consumption in dHL60 cells was monitored before and after the sequential addition of the candidate Nox inhibitors and PMA using a Seahorse XFe96 extracellular flux analyzer (Agilent Technologies, Santa Clara, CA, USA). The cell suspension was prepared in phenol red-free RPMI medium (without bicarbonate) and aliquoted (80 µL/well) into a 96-well plate to obtain a final cell number of 2 × 10^4 cells/well. Cells were spun down and an additional amount of RPMI medium (100 µL/well) was added gently so as not to disturb the cells at the bottom of the wells. The solutions for injections were prepared 10× concentrated, loaded into the injection ports of the Seahorse XFe96 cartridge, and the volumes injected were 20 µL and 22.2 µL for the compounds tested and PMA, respectively. The oxygen consumption rates were monitored for 30 min before injection (baseline respiration rate), 60 min after injection of different concentrations of the candidate Nox inhibitors, and 2 h after injection of PMA (final concentration: 1 µM). Increases in OCR values after PMA injection were used as a measure of Nox2 activity.

Nox2 [2] = target: T1, Nox2; experiment: Plate reader hydroethidine (HE + DNA) assay of O2•− production by PMA-activated dHL60 cells; type: cell-based
Method: Human promyelocytic leukemia HL60 cells (Sigma-Aldrich) were grown in RPMI 1640 medium (Gibco, 11875-093, Billings, MT, USA) supplemented with 10% FBS (Omega Scientific (Tarzana, CA, USA)), 100 units/mL penicillin, and 100 µg/mL streptomycin, and were incubated at 37 °C and 5% carbon dioxide (CO2). For differentiation to neutrophil-like cells, HL60 cells were pelleted and resuspended in fresh media containing 1 µM of all trans-retinoic acid and incubated for four to five days. Nox2 activation was achieved by treating differentiated HL60 (dHL60) cells with 1 µM PMA [24]. […]
Plate reader-based analyses of the production of O2^•− and H2O2 by PMA-activated dHL60 cells were performed according to a published protocol with minor modifications. […] Once probes + PMA were added, plates were sealed with sealing film and immediately placed in the pre-warmed plate readers (37 °C). Fluorescence intensities were monitored kinetically from the bottom of the plates every 1.3 min for a period of 2 h using Beckman Coulter (Brea, CA, USA) DTX880 and BMG Labtech (Ortenberg, Germany) FLUOstar Omega plate readers. […] The IC50 values were determined using at least five independent measurements, each consisting of technical quadruplicates per concentration.

Structure (SMILES): CN(C)CCCn1c(SCCc2c[nH]c3ccccc23)nc2ccc(F)cc2c1=O [TG15-132]
- basal respiration (OCR) (Nox2 [1]; 1 h after compound injection, before PMA, concentrations that inhibit PMA-induced OCR): no inhibition of basal respiration
- PMA-induced OCR (Nox2 [1]; PMA 1 µM after 1 h compound): significant inhibition of PMA-induced OCR
- pIC50 (Nox2 [2]; HE probe + DNA, plate reader, PMA-activated dHL60 cells, Figure 5C, read-out: IC50, inhibition of O2•− production): 5.30
- PMA-stimulated increase in HE fluorescence intensity (Nox2 [2]; cell pretreatment, Figure 5B,C): dose-dependently inhibited
